Laboratory results taken from paper PMC4885110, “Structure-Based Design of an in Vivo Active Selective BRD9 Inhibitor” (Journal of Medicinal Chemistry, 2016).

Columns and labels:
[1] = Aqueous solubility; assay type: physicochemical; conditions: aqueous McIlvaine buffer, pH 6.8
Experimental: (§1) this tumor mouse model body weight changes can occur due to increased tumor load or due to […]
(§2) Determination of physicochemical and in vitro DMPK parameters […]
(§3) diluted with aqueous McIlvaine buffer at pH 6.8, or with acetonitrile/water (1:1) as a reference. Samples were shaken for 24 h at room temperature in 96-well plates (Whatman Uniplate® 96 wells, 750 µL, polypropylene, round bottom). The plate was then centrifuged at 3,000 rpm for 2 min. 250 µL of each sample were transferred to a Millipore MultiScreenHTS filter plate with a polycarbonate membrane, pore size 0.45 μm. Filtrates were collected by centrifugation at 3,000 rpm for 2 min. The dissolved concentrations were determined by UPLC/UV on a Waters ACQUITY UPLC® SQD system equipped with a Waters ACQUITY UPLC® BEH 2.1x50 mm C18 column, particle size 1.7 µm, using a short gradient with water/0.1% formic acid as solvent A and acetonitrile/0.1 % formic acid as solvent B (5 to 95 % B with 1.7 min total cycle time). Compound signals were measured with a photodiode array UV detector operated at 254 nm. Solubility was determined with a one point calibration by comparing peak areas relative to the reference standard using Waters Empower software. […]

[2] = assay type: in vivo; conditions: Mouse 5 mg/kg i.v. bolus
Excerpt: Mice were housed under pathogen-free conditions (AAALAC accredited facility) and treated according to the institutional, governmental and European Union guidelines (GV-SOLAS, Felasa, Austrian Animal Protection Laws). All animal studies were reviewed and approved by the internal ethics committee of Boehringer Ingelheim and the local governmental committee (Amt der Wiener Landesregierung, Magistratsabteilung 58, Vienna, Austria).
Pharmacokinetic and efficacy studies in mice […]
Following injection of the cells animals were randomized based on body weight (n=10/group). […] All doses were calculated relative to the mouse body weight on the treatment day. […]
body weight loss. Tumour load was measured 2-3 times weekly based on bioluminescence imaging as described previously. […]
1x10^6 cells/mL were incubated and continuously shaken in a Thermo Scientific Cytomat™ for 4 h at 85-95% relative humidity and 5-10% CO2 at 37 °C. Aliquots were taken from the medium at 0, 0.5, 1, 1.5, 2.5 und 4 h and concentrations of the test compounds quantified by HPLC/MS/MS on a BIOCIUS Life Sciences RapidFire® system coupled to a Thermo Scientific™ TSQ Vantage™ triple-quadrupole mass spectrometer. Predicted clearances were calculated using the well-stirred model.
(§4) In vitro plasma protein binding (PPB) was determined by a semi-automated equilibrium dialysis assay on a Tecan robotic system at a test compound concentration of 3 µM. […]

[3] = Disseminated EOL-1 AML mouse model; assay type: in vivo; conditions: female, CIEA-NOG, po, 180 mg/kg p.o., plasma, last day of treatment
[4] = 1 week tolerability study in non-tumor-bearing CIEA-NOG mice; assay type: in vivo; conditions: 180 mg/kg, continuous daily dosing, female CIEA-NOG mice
[5] = Hepatocytes predicted clearance, mouse; assay type: in vitro ADME
Experimental: as §1, §2, §3, §4

[6] = Hepatocytes predicted clearance, human; assay type: in vitro ADME
Experimental: as §1, §2, §3, §4

[7] = tested on: U2OS cells; assay: Toxicity in U2OS cells; assay type: cell-based; conditions: after 24 h
Experimental: Figure 4 FRAP assay using U2OS cells transfected with GFP–BRD9. (a) Recovery half times of wild-type (wt) cells treated with DMSO in the absence or presence of 2.5 μM SAHA or treated with 1 at 1 μM and SAHA as indicated. In addition, cells expressing GFP–BRD9 with a BD-inactivating mutation (N100F) were analyzed. Significant differences relative to cells treated with SAHA (p < 0.0001) are shown by ****. (b) Time dependence of fluorescence recovery in the bleached area of cells expressing wt or mutant GFP–BRD9 with the corresponding treatments shown in (a). (c) Recovery half times of cells expressing wt GFP–BRD9 treated with various concentrations of DMSO and 2 in the presence or absence of SAHA as indicated. Cells expressing the GFP–BRD9 mutant (N100F) were treated as indicated. Significant differences relative to cells treated with SAHA (p < 0.0001) are shown by ****. (d) Time dependence of fluorescence recovery in the bleached area of cells expressing wt or mutant GFP–BRD9 with the corresponding treatments shown in (c). Curves represent averaged data of at least 20 replicates. […] The N100F construct is a negative control BRD9 mutant in which Asn100 is replaced by Phe100 and therefore acetylated histone cannot bind because of the lack of interaction to the anchor Asn and because of steric hindrance. […]

[8] = Hepatocytes predicted clearance, rat; assay type: in vitro ADME
Experimental: as §1, §2, §3, §4

[9] = design: method as in earlier work; conditions: cited from earlier work

SMILES	solubility at 24 h [1]	plasma CL [2]	AUC(0-t) [3]	tolerability [4]	Hepatocytes pred. CL mouse [5]	Hepatocytes pred. CL human [6]	toxicity in U2OS cells [7]	Hepatocytes pred. CL rat [8]	membrane permeability [9]
COc1cc(-c2cn(C)c(=O)c3cnccc23)c(OC)cc1CN(C)C [Compound 2, 4-{4-[(Dimethylamino)methyl]-2,5-dimethoxyphenyl}-2-methyl-1,2-dihydro-2,7-naphthyridin-1-one]	> 90 µg/mL	65% QH	268 µM·h	well-tolerated	56 % QH	17 % QH	no toxicity	17 % QH	–
CCn1cc(-c2cccc(C(F)(F)F)c2)c2sc(C(=N)NC3CCS(=O)(=O)CC3)cc2c1=O [I-BRD9]	–	–	–	–	–	–	–	–	210 nM/s
COc1cc(-c2cn(C)c(=O)c3cnccc23)cc(OC)c1CN(C)C [Compound 1, n1cc2c(cc1)C(=CN(C2=O)C)c1cc(c(c(c1)OC)CN(C)C)OC]	> 91 µg/mL	57% QH	–	–	58 % QH	17 % QH	no toxicity	< 7 % QH	–
